The target in data set [1] is T1, Trichoderma harzianum CBS 223.93 L-amino acid oxidase (Trichoderma harzianum, UniProt A0A2T4A4V3).
T1 sequence (A0A2T4A4V3 with tags, fused parts or gaps V19I/P71L/S84P/G163K/E317K/D352E/Y353H/V383A/D435A/DEL437-437/D438T/D462E/L570R/R580K/V618I): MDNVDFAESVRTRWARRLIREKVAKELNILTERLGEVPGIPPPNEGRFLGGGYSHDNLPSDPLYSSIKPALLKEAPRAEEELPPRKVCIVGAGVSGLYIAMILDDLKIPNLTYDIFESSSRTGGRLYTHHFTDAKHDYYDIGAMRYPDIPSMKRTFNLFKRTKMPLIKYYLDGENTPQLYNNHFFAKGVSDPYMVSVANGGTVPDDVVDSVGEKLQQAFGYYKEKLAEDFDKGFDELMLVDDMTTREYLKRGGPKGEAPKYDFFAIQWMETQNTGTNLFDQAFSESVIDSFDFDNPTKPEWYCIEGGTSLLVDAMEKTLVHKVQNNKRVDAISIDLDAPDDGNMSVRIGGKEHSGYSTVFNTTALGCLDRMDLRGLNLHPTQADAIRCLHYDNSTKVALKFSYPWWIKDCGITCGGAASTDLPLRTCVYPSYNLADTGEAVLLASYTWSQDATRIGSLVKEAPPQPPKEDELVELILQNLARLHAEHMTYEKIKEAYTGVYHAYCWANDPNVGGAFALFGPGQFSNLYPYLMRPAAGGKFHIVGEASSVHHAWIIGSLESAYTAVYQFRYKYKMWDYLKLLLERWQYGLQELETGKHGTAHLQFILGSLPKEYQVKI
Kind of data set: Substrate specificity: specific activity and Km with various L-amino acids as substrates. Format: biochemical. Conditions: for Specific Activity / activity of the L-amino acid oxidase towards the substrate: phosphate buffer pH 8.5, room temperature; for Specific Activity: 20 minutes; for Km: Lineweaver-Burk plots (1/v versus 1/s); for ranking of Km values among substrates: comparison of the substrates of Table 1. As to the method: (§1) In the following characterization experiments, detection of H2 O2 was carried out using a Coprinus cinereus peroxidase (CiP), obtained according to WO 92/16634, at a level of 4.5 PODU/ml, and 0.4 mM ABTS in phosphate buffer at pH 7.0. The hydrogen peroxide concentrations were determined relative to a freshly prepared hydrogen peroxide standard solution.
For determination of substrate specificity, the activity of the L-amino acid oxidase was determined with various L-amino acids as substrates. The L-amino acid oxidase was incubated with the substrate in phosphate buffer at pH 8.5 and room temperature for 20 minutes. Generated hydrogen peroxide was detected using ABTS and CiP as described above. The specific activity was determined as described in Example 2 above.
Km values for the various substrates were determined by plotting values of 1/v versus 1/s (Lineweaver-Burk plots).

Data set [2] can be described thus: Specific activity of the purified L-amino acid oxidase. Conditions: 50 mM phosphate buffer pH 8.5, 20° C., 1 mM L-arginine as substrate. It is filed as biochemical, Trichoderma harzianum. As to the method: For purposes of the present invention, L-amino acid oxidase activity is determined according to the procedure described in WO 94/25574 where the hydrogen peroxide produced during the […] of L-arginine is measured by coupling the reaction to a peroxidase in the presence of 2,2'-azinobis(3-ethylbenzothiazoline-6sulfonate) (ABTS) which produces a greenish-blue color at 418 nm. One unit of L-amino acid oxidase activity is defined as 1.0 μmole of hydrogen peroxide produced per minute at 20° C. in 50 mM phosphate buffer at pH 8.5 with 1 mM L-arginine as substrate.
The specific activity of the purified L-amino acid oxidase was 16 U/mg determined in a 50 mM phosphate buffer at pH 8.5, 20° C. with 1 mM L-arginine as substrate. One unit of enzyme will form 1 μmole of hydrogen peroxide per minute. The amount of protein was quantified assuming that a solution of the L-amino acid oxidase having an optical density of 1 determined at 280 nm contains 1 mg of protein/ml. The L-amino acid oxidase yield was approximately 50 mg of pure protein per liter of culture medium.

The nature of data set [3]: pH activity profile / pH optimum of the L-amino acid oxidase. It is filed as biochemical, Trichoderma harzianum. Conditions: 20 minutes, 1 mM L-arginine, 100 mM phosphate buffer; FIG. 1. As to the method: as §1
(§2) For determination of the pH optimum, the assay was carried out in two steps. In the first step, the L-amino acid oxidase was incubated for 20 minutes with 1 mM of L-arginine in 100 mM of phosphate buffer at various pH values. In the second step, the generated hydrogen peroxide was detected as described above.

Data set [4] can be described thus: pH stability of the L-amino acid oxidase (residual activity). It is filed as physicochemical, Trichoderma harzianum. Conditions: 1 hour at 40° C., 50 mM phosphate buffer, FIG. 2. As to the method: as §1, §2
For determination of pH stability, the L-amino acid oxidase was incubated at various pH values for 1 hour at 40° C. in 50 mM of phosphate buffer. After dilution, residual activity was measured using the two-step procedure described above.

The nature of data set [5]: Temperature stability of the L-amino acid oxidase (residual activity). Format: physicochemical, Trichoderma harzianum. Conditions: phosphate buffer pH 8.5, 1 hour, FIG. 3. As to the method: as §1, §2
For determination of temperature stability, the L-amino acid oxidase was incubated in phosphate buffer at pH 8.5 for 1 hour at various temperatures. After dilution, residual activity was measured using the two-step procedure described above.

As for `N[C@@H](Cc1ccccc1)C(=O)O` [L-phenylalamine], the “Specific Activity” value in data set [1] (Substrate Conc. 80 mM) is given as 25 U/mg. In data set [1], the “activity of the L-amino acid oxidase towards the substrate” value is “showed activity”.

For orientation: Km means the substrate concentration at which the rate is half of its maximum. `CSCC[C@H](N)C(=O)O` [L-methionine]: in data set [1], the Michaelis-Menten constant (Km) is 15 mM and the “activity of the L-amino acid oxidase towards the substrate” value was “showed activity”. In addition, the “Specific Activity” value in data set [1] (Substrate Conc. 80 mM) is 8 U/mg.

Turning to `NCCCC[C@H](N)C(=O)O` [L-lysine], in data set [1], the Km came to 0.2 mM, the “ranking of Km values among substrates” value is “lowest Km values” and the “activity of the L-amino acid oxidase towards the substrate” value was “showed activity”. Moreover, in data set [1] (Substrate Conc. 1 mM), the “Specific Activity” value was determined as 7 U/mg.

For `NC(=O)C[C@H](N)C(=O)O` [L-asparagine], in data set [1] (Substrate Conc. 80 mM), the “Specific Activity” value turned out to be 7 U/mg. In addition, the “activity of the L-amino acid oxidase towards the substrate” value in data set [1] is recorded as “showed activity”.

Turning to `CC(C)C[C@H](N)C(=O)O` [L-leucine], in data set [1] (Substrate Conc. 80 mM), the “Specific Activity” value is on record as 16 U/mg. Further, the “activity of the L-amino acid oxidase towards the substrate” value in data set [1] is “showed activity”.

Take `N=C(N)NCCC[C@H](N)C(=O)O` [L-arginine]: in data set [1] (Substrate Conc. 1 mM), the “Specific Activity” value is reported as 16 U/mg. Moreover, the “Specific Activity” value in data set [1] (Substrate Conc. 10 mM) is reported as 30 U/mg. In addition, in data set [1], the “ranking of Km values among substrates” value was “lowest Km values” and the “activity of the L-amino acid oxidase towards the substrate” value is “showed activity”. In data set [1] (from the experiments of Table 1), the preferred substrate entry was “preferred substrate”.

B1: L-amino acid oxidase: purified L-amino acid oxidase from Trichoderma harzianum CBS 223.93; deduced protein of 617 amino acids (SEQ ID NO. 2) (protein)
chain: T1 sequence (A0A2T4A4V3 with tags, fused parts or gaps V19I/P71L/S84P/G163K/E317K/D352E/Y353H/V383A/D435A/DEL437-437/D438T/D462E/L570R/R580K/V618I)
With B1, the “specific activity of the purified L-amino acid oxidase” value in data set [2] is 16 U/mg. Further, in data set [3], the “pH interval in which activity is shown” value is given as “from pH below 7 to a pH of approximately 12”. In addition, the pH optimum in data set [3] is reported as ~9 pH. In addition, the “pH stability relative to initial activity” value in data set [4] (pH 10) is reported as “more than 70%”; in data set [4] (range pH 7-9.5), “more than 80%”. The “temperature range in which the enzyme is stable” value in data set [5] is “from below 22 °C to above 60 °C”. Moreover, the “temperature stability relative to initial activity” value in data set [5] (range 25° C. to 60° C.) is “more than 80%”.
